The test system of test [1] is urease. Nature of the test: Screening of urease inhibition (colorimetric Phenol Red assay, 96 well plates). Format: biochemical. The following applies: additive 0.1 w/w, urea 0.2% w/w, urease 0.5 U/ml; for Inhibition: fraction vs negative control, 1 h. The protocol: Urease catalyzed ammonia formation leads to a change in pH (alkalization). […] The enzymatic screening assay is described below. The colorimetric assay is conducted in 96 well plates in combination with a microplate spectrophotometer with Phenol Red as pH sensitive indicator.
In brief: the substrate urea, the fragrance raw material and the urease are mixed in the wells and the change in absorption at 560 nm is monitored for 1 h. The resulting absorbance curves are compared to untreated samples (negative controls, without inhibitors) and samples with commercially available NBPT inhibitor (positive control).

For test [2], the system named is urease. Nature of the test: Application in cat litter: ammonia formation from artificial cat urine (headspace sampling). The following applies: litter coated with 0.1% (w/w) active material; artificial cat urine with urea and urease; headspace ammonia over 5 days; negative control = 100. The protocol:
The efficiency of reducing ammonia formation in cat litter was tested with different fragrance raw materials that are shown in the table below (table 3).
In brief, the litter was coated with a final concentration of 0.1% (w/w) of active material respective to the dry litter material. In a glass bottle with a total volume of 5 l, the litter is treated with artificial cat urine that consists of an aqueous salt solution containing urea and urease. The development of ammonia is measured through headspace sampling with an ammonia sensitive detector over a period of 5 days.

In the case of `CCOc1cc(C)ccc1O` [2-ethoxy-4-methylphenol], in the test with urease [1] (positive hits table), the Inhibition is listed as 0.786.

Consider `OC/C=C/c1ccccc1` [CINNAMIC ALCOHOL, (2E)-3-phenylprop-2-en-1-ol], for which, in the test with urease [1] (positive hits table), the Inhibition is listed as 0.931.

On to `C/C=C/C(=O)C1C(C)=CCCC1(C)C` (stereo not drawn) [DAMASCONE ALPHA, (E)-1-(2,6,6-trimethyl-1-cyclohex-2-enyl)but-2-en-1-one], for which the Inhibition in the test with urease [1] (positive hits table) turned out to be 0.991.

In the case of `C/C=C/C(=O)C1=C(C)C=CCC1(C)C` [D[…], (E)-1-(2,6,6-trimethyl-1-cyclohexa-1,3-dienyl)but-2-en-1-one], in the test on urease [1] (positive hits table), the Inhibition amounted to 0.985.

Take `C=CCc1ccc(O)c(OC)c1` [EUGENOL NAT., 2-Methoxy-4-(prop-2-en-1-yl)phenol]: in the test with urease [1] (positive hits table), the Inhibition worked out at 0.908.

For the molecule `Cc1ccc2c(c1)OC(=O)C2C` (stereo not drawn) [FURAMINTON/TONKALACTONE ™, dimethyl-3,6-benzo-2(3H)-furanone], the Inhibition in the test with urease [1] (positive hits table) amounted to 0.669.

Turning to `CC1=C(O)C(=O)C(C)O1` (stereo not drawn) [FURANEOL, 4-Hydroxy-2,5-dimethyl-3-furanone], the Inhibition with urease [1] (positive hits table) came out at 0.985.

`CC(C)=CCC/C(C)=C/CO` [GERANIOL 60 B, 2,6-Octadien-1-ol 3,7-dimethyl]: the Inhibition with urease [1] (positive hits table) was 0.910.

`COc1ccccc1O` [GUAIACOL, 2-Methoxyphenol]: the Inhibition in the test with urease [1] (positive hits table) was found to be 0.718.

As for `CCC/C=C/C=O` [HEXENAL TRANS-2, trans-2-hexenal], in the test on urease [1] (positive hits table), the Inhibition stood at 0.961. The “Relative ammonia formation in %” value in the test with urease [2] is given as 32%.

In the case of `CC/C=C\CCO` [HEXENOL CIS-3, cis-3-hexenol], the Inhibition in the test on urease [1] (positive hits table) came out at 0.888.

As to `CCC/C=C/CO` [HEXENOL TRANS-2, trans-2-hexenol], the Inhibition in the test with urease [1] (positive hits table) was found to be 0.912.

For the molecule `CC/C=C\CCOC(C)=O` [HEXENYL ACETATE CIS-3, cis-3-hexenyl acetate], in the test on urease [1] (positive hits table), the Inhibition amounted to 0.723.

With `CC/C=C\CCOC(=O)CCC` [HEXENYL BUTYRATE CIS-3, cis-3-hexenyl butyrate], the Inhibition in the test with urease [1] (positive hits table) was 0.999. In the test on urease [2], the “Relative ammonia formation in %” value is on record as 65%.

As to `CC/C=C\CCOC(=O)CCCCC` [HEXENYL CAPROATE CIS-3, cis-3-hexenyl hexanoate], the Inhibition with urease [1] (positive hits table) is given as 0.824.

In the case of `CC/C=C\CCOC(=O)C(C)C` [HEXENYL I[…]-3, cis-3-hexenyl isobutyrate], the Inhibition with urease [1] (positive hits table) was 0.865.

For the molecule `CC/C=C\CCOC(=O)CC(C)C` [HEXENYL I[…]-3, cis-3-hexenyl isovalerate], the Inhibition in the test with urease [1] (positive hits table) was found to be 0.724.

On to `CC/C=C\CCOC(=O)CC` [HEXENYL […]-3, cis-3-hexenyl propionate], for which the Inhibition in the test on urease [1] (positive hits table) is recorded as 0.956.

As for `CC/C=C\CCOC(=O)c1ccccc1O` [HEXENYL […]-3, cis-3-hexenyl salicylate], the Inhibition in the test on urease [1] (positive hits table) is listed as 0.989. In addition, the “Relative ammonia formation in %” value with urease [2] is 65%.

As for `CC/C=C\CCOC(C)OCC` (stereo not drawn) [LEAF ACETAL, cis-1-(1-Ethoxyethoxy)-3-hexene], the Inhibition in the test on urease [1] (positive hits table) worked out at 0.964. Further, the “Relative ammonia formation in %” value in the test on urease [2] is listed as 81%.

Turning to `CCC(=O)/C=C/C1C(C)=CCCC1(C)C` (stereo not drawn) [METHYL IONONE ALPHA/IFF, methyl ionone alpha], the Inhibition in the test on urease [1] (positive hits table) was found to be 0.936.

Consider `CC(=O)/C(C)=C/C1C(C)=CCCC1(C)C` (stereo not drawn) [METHYL IONONE GAMMA PURE/IFF, methyl ionone gamma], for which the Inhibition with urease [1] (positive hits table) worked out at 0.942.

Take `CCCCNP(N)(N)=S` [NBPT, reference compound]: in the test with urease [1] (Table 2), the Inhibition stood at 1.00. Also, the “Δ Absorbance at 1 h (560 nm)” value in the test with urease [1] (PBS pH 7.4, monitored 1 h) is recorded as 0.00.

Regarding `CC(C)=CCC/C(C)=C\CO` [NEROL 900, (2Z)-3,7-dimethylocta-2,6-dien-1-ol], in the test on urease [1] (positive hits table), the Inhibition came to 0.758.

In the case of `CC/C=C\CC/C=C/CO` [NONADIENOL-2,6, 2,6-nonadien-1-ol], the Inhibition in the test with urease [1] (positive hits table) is reported as 0.885.

These data come from patent US20250295826A1, “[…] UREASE INHIBITORS” (Symrise AG, priority 2022, published 2025).
